Molecules are shown by their SMILES. Structures can show the parent of a compound that is named as a salt.

In the first data set the target is T1, Recombinant human renin (Homo sapiens, UniProt P00797).
T1 construct: made in house; host or cells: Chinese Hamster Ovary (CHO) cells
T1 sequence (P00797 67-406): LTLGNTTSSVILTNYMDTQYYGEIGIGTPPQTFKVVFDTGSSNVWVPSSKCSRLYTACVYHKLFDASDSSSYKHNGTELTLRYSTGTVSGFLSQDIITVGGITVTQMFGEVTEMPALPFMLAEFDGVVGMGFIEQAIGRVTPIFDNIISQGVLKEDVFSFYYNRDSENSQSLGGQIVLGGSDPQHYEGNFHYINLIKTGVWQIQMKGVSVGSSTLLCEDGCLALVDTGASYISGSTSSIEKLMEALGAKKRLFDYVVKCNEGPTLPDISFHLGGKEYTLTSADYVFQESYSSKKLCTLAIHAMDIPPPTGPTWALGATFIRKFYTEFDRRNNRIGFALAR
Put plainly: Renin inhibition in a purified system (FRET, synthetic substrate Dabcyl-gaba-IHPFHLVIHT-EDANS). Type of data set: biochemical. As to conditions: renin 10 nM, substrate 10 μM, 2 h, room temperature, pH 8. As to the method:
The protocol for the determination in a purified system of the in vitro IC50s of the compounds of the invention is described hereafter.
Recombinant human renin (expressed as prorenin in Chinese Hamster Ovary and purified after activation in active renin using standard methods) at 10 nM concentration is incubated with test compounds at various concentrations and the synthetic substrate Dabcyl-gaba-IHPFHLVIHT-EDANS (Bachem) at 10 μM for 2 h at room temperature, in 0.05 M Tris buffer pH 8 containing 0.1 M NaCl, 2.5 mM EDTA and 1.25 mg/ml bovine serum albumin. Increase in fluorescence (due to the Fluorescence Resonance Energy Transfer) is recorded at an excitation wave-length of 330 nm and at an emission wave length of 485 nm in a microplate spectrofluorometer. IC50 values are calculated from the percentage of inhibition of renin activity as a function of test compound concentration.
For the compound `COCCCOc1cc(C(C)(C)CC(=O)NC(=N)N)ccc1-c1ccc(CN2CCC(N(C)C)CC2)cc1` [Compound 22], the IC50 is 10 nM.

Consider `CCCNC(=N)NC(=O)CC(C)(C)c1ccc(-c2ccc(C(=O)N3CCN(C)CC3)cc2)c(OCCCOC)c1` [Compound 25, N-[imino(propylamino)methyl]-3-{2-(3-methoxypropoxy)-4′-[(4-methylpiperazin-1-yl)carbonyl]biphenyl-4-yl}-3-methylbutanamide hydrochloride], for which the IC50 came out at 228 nM. As to `COCCCOc1cc(CCC(=O)NC(=N)N)ccc1-c1nccs1` [Compound 157], the IC50 came to 126 nM. Turning to `COCCCOc1cc(CCC(=O)NC(=N)N)ccc1-c1ccc(CN2CCN(C)CC2=O)cc1` [Compound 78], the IC50 was determined as 42 nM.

`COCCCOc1cc(CCC(=O)NC(=N)N)ccc1-c1ccc(CN2CCCCC2)cc1` [Compound 13, N-[amino(imino)methyl]-3-[2-(3-methoxypropoxy)-4′-(piperidin-1-ylmethyl)biphenyl-4-yl]propanamide hydrochloride]: the IC50 was determined as 79 nM.

As to `COCCCOc1cc(CCC(=O)NC(=N)N)ccc1-c1cccnc1` [Compound 21, hydrochloride], the concentration for half-maximal inhibition (IC50) turned out to be 98 nM. In the case of `COCCCOc1cc(CCC(=O)NC(=N)N)ccc1-c1cccc(CN2CCCCC2=O)c1` [Compound 179], the IC50 worked out at 19 nM. `CNC(=N)NC(=O)CCc1ccc(-c2ccc(Cl)c(CS(=O)(=O)C(C)(C)C)c2)c(OCCCOC)c1` [Compound 194, 3-{3′-[(tert-butylsulfonyl)methyl]-4′-chloro-2-(3-methoxypropoxy)biphenyl-4-yl}-N-(methylcarbamimidoyl)propanamide hydrochloride]: the 50% inhibitory concentration (IC50) was determined as 48 nM. In the case of `COCCCOc1cc(CCC(=O)NC(=N)NCCC(C)C)ccc1-c1ccc(CN2CCC(N(C)C)CC2)cc1` [Compound 11], the IC50 was determined as 23 nM.

As for `COCCCOc1cc(CCC(=O)NC(=N)N)ccc1-c1ccc(CN2CCN(C)C2=O)cc1` [Compound 173], the IC50 came out at 53 nM. On the same count and under the same terms, the figure for `COCCCOc1cc(CCC(=O)NC(=N)NCCc2ccccn2)ccc1-c1ccc(CN2CCC(N(C)C)CC2)cc1` [Compound 6] is 100 nM; for `CCCCNC(=N)NC(=O)CCc1ccc(-c2ccc(CNCC(c3ccccc3)N(C)C)cc2)c(OCCCOC)c1` (stereo not shown) [Compound 48, N-butyl-N′-{3-[4′-[(2-dimethylamino-2-phenyl-ethylamino)-methyl]-2-(3-methoxy-propoxy)-biphenyl-4-yl]-propionyl}-guanidine, trifluoro-acetic acid salt] it is 143 nM. The same measure, in the same setting: the figure for `CCCCNC(=N)NC(=O)CCc1ccc(-c2ccc(CN3CCN(CC(=O)N(C)C)CC3)cc2)c(OCCCOC)c1` [Compound 30] is 70 nM; for `COCCCOc1cc(CCC(=O)NC(=N)N)ccc1-c1ccc(CN2CCC(N(C)C)CC2)cc1` [Compound 2, N-[amino(imino)methyl]-3-[4′-{[4-(dimethylamino)piperidin-1-yl]methyl}-2-(3-methoxypropoxy)biphenyl-4-yl]propanamide hydrochloride] it is 19 nM.

Tested on in the next data set: not given
Test: not given
Conditions: not given
In turn, `COCCCOc1cc(C(C)(C)CC(=O)NC(=N)N)ccc1-c1ccc(CN2CCC(N(C)C)CC2)cc1` (as salt: HCl) [Compound 22] showed a melting point of 105.5 °C.

Regarding `COCCCOc1cc(CCC(=O)NC(=N)N)ccc1-c1ccc(CN2CCN(C)CC2=O)cc1` (as salt: HCl) [Compound 78], the melting point was 61.5 °C.

Compound `COCCCOc1cc(CCC(=O)NC(=N)NCCc2ccccn2)ccc1-c1ccc(CN2CCC(N(C)C)CC2)cc1` (as salt: HCl) [Compound 6] showed a melting point of 128 °C. In turn, `CNC(=N)NC(=O)CCc1ccc(-c2cccc(N(C)C(=O)N3CCOCC3)c2)c(OCCCOC)c1.Cl` showed a melting point of 54 to 55 °C.

For `COCCCOc1cc(CCC(=O)NC2=NC(=O)C(C)(C)CN2)ccc1-c1ccc(CN2CCC(N(C)C)CC2)cc1.Cl`, the melting point came to 132 °C.
